The values that follow come from patent US4162324A, “Antibiotics 890A1 and 890A3” (Merck & Co., Inc., priority 1977, dated 1979).

Each structure is given as a SMILES string.

Series [1] has as its system Vibrio percolans (ATCC 8461). In words: Assay procedure for determining "890 Assay Units" (disc-plate assay, cephaloridine standard). Format: cell-based. How it is done:
The conventional disc-plate assay procedure is employed and the discs are 1/2 inch in diameter. The routinely poured 10 ml./plate inoculated with Vibrio percolans (ATCC 8461) is used and the standard is cephaloridine. Four concentrations of cephaloridine constitute the standard -- 3.12, 6.25. 12.5 and 25 mcg per ml. with the 12.5 mcg per ml. as a reference solution. The zone diameters on a 5 ml. plate for the standard are as follows:
A unit is defined as the amount of antibiotic-producing a 25 mm. zone of inhibition on a 5 ml. plate. Therefore, in this assay a concentration of 12.5 mcg per ml. of cephaloridine is considered equivalent to 1 unit of 890A. Since the slope of the line for cephaloridine is 4.0 calculations of the potency of a sample are made using a slope of 4.0.

Series [2] relates to Alcaligenes faecalis ATCC 213. In words: In vitro antibacterial spectrum profile, zone of inhibition. The class given is cell-based. As to conditions: ATCC213, 33 μg/ml, read-out: Inhib. Zone Diam. The method, then: (§1) The test to determine the antibiotic spectrum profile is carried out by application of a 0.015 ml. droplet on the surface of a 100×15 mm. petri plate containing 5 ml. of seeded nutrient agar and 0.2% yeast extract. The antibiotic 890A1 is tested at a level of 33 μg/ml. and the antibiotic 890A3 is tested at a level of 182 μg/ml.

For series [3], the system named is Bacillus sp. MB-633. Described as above. The class given is cell-based. The following applies: SP.MB633, 33 μg/ml, read-out: Inhib. Zone Diam. The method, then:
as §1

Series [4] concerns Corynebacterium pseudoidph. ATCC 9742. Described as above. Format: cell-based. As to conditions: ATCC9742, 33 μg/ml, read-out: Inhib. Zone Diam. How it is done:
as §1

The test system of series [5] is Proteus vulgaris ATCC 21100. Described as above. Format: cell-based. As to conditions: ATCC21100, 33 μg/ml, read-out: Inhib. Zone Diam. How it is done: as §1
Series [6] deals with Proteus vulgaris MB-1012. Described as above. Format: cell-based. The following applies: MB1012, 33 μg/ml, read-out: Inhib. Zone Diam.
In series [7] the test system is Pseudomonas aeruginosa MB-979. The series is described as above. Format: cell-based. As to conditions: MB979, 33 μg/ml, read-out: Inhib. Zone Diam.
In series [8] the test system is Serratia marcescens ATCC 990. The description is as above. The class given is cell-based. As to conditions: ATCC990, 33 μg/ml, read-out: Inhib. Zone Diam.
Series [9] relates to Staphlococcus aureus ATCC 6538 P. Described as above. The following applies: 33 μg/ml; read-out: Inhib. Zone Diam. Format: cell-based.
The test system of series [10] is Bacillus subtilis ATCC 6633. Described as above. Format: cell-based. The following applies: ATCC6633, 33 μg/ml, read-out: Inhib. Zone Diam.
In series [11] the test system is Sarcina lutea ATCC 9341. Described as above. Format: cell-based. The following applies: Micrococcus luteus, ATCC9341; 33 μg/ml; read-out: Inhib. Zone Diam.
For series [12], the system named is Staphylococcus aureus MB-698. Described as above. As to conditions: MB698, 33 μg/ml, read-out: Inhib. Zone Diam. The class given is cell-based.
Series [13] deals with Streptococcus faecalis MB-753. The series is described as above. The class given is cell-based. The following applies: Enterococcus faecalis, MB753; 33 μg/ml; read-out: Inhib. Zone Diam.
Series [14] deals with Brucella bronchiseptica ATCC 4617. Description: microbe, parasite or virus in culture. The class given is cell-based. As to conditions: Bordetella bronchiseptica, ATCC4617, read-out: Inhib. Zone Diam.
Series [15] relates to Salmonella gallinarum MB-1287. Description: In vitro antibacterial spectrum profile, zone of inhibition. Format: cell-based. The following applies: Salmonella enterica, 33 μg/ml, read-out: Inhib. Zone Diam.
Series [16] concerns Vibrio percolans ATCC 8461. The description is as above. The class given is cell-based. The following applies: Comamonas terrigena, ATCC8461, read-out: Inhib. Zone Diam.
In series [17] the test system is Xanthomonas vesicatoria MB-815. The description is as above. The class given is cell-based. As to conditions: MB815, 33 μg/ml, read-out: Inhib. Zone Diam.
Series [18] deals with Escherichia coli MB-1418. The description is as above. The class given is cell-based. The following applies: MB1418, read-out: Inhib. Zone Diam.
Series [19] has as its system Pseudomonas stutzeri ATCC 11607. Described as above. The class given is cell-based. The following applies: Stutzerimonas stutzeri, ATCC11607; 33 μg/ml; read-out: Inhib. Zone Diam.
Series [20] deals with Klebsiella pneumoniae MB-1264. The description is as above. The class given is cell-based. As to conditions: MB1264, read-out: Inhib. Zone Diam.
The subject of series [21] is Aerobacter aerogenes MB-835. Described as above. The following applies: Klebsiella aerogenes, MB835; 33 μg/ml; read-out: Inhib. Zone Diam. Format: cell-based.
Series [22] deals with Erwinia atroseptica ATCC 4466. The description is as above. The class given is cell-based. As to conditions: Pectobacterium atrosepticum, ATCC4466; 33 μg/ml; read-out: Inhib. Zone Diam.
Series [23] deals with Pseudomonas aeruginosa MB-2824. The description is as above. The following applies: MB2824, 33 μg/ml, read-out: Inhib. Zone Diam. The class given is cell-based.
Series [24] concerns Escherichia coli ATCC 9637. In words: In vitro antibacterial spectrum profile, zone of inhibition, synthetic medium. Format: cell-based. As to conditions: ATCC9637, read-out: Inhib. Zone Diam.
For series [25], the system named is Streptococcus faecium MB-2820. Description: In vitro antibacterial spectrum profile, zone of inhibition. The class given is cell-based. As to conditions: Enterococcus faecium, MB2820; 33 μg/ml; read-out: Inhib. Zone Diam.
Series [26] concerns Streptococcus agalactiae MB-2875. The series is described as above. Format: cell-based. The following applies: MB2875, read-out: Inhib. Zone Diam.
Series [27] has as its system Vibrio percolans resistant to ceph. C MB-2566. The series is described as above. Format: cell-based. The following applies: Comamonas terrigena, read-out: Inhib. Zone Diam.
Series [28] relates to Proteus vulgaris (episome) MB-2112. The series is described as above. Format: cell-based. As to conditions: 33 μg/ml, read-out: Inhib. Zone Diam.
Series [29] has as its system Proteus mirabilis MB-3126. Described as above. Format: cell-based. The following applies: MB3126, 33 μg/ml, read-out: Inhib. Zone Diam.
Series [30] deals with Vibrio percolans ATCC 8461 + 2 × 10^5 units/ml penicillinase. Description: In vitro antibacterial spectrum profile, zone of inhibition, with penicillinase. Format: cell-based. As to conditions: Comamonas terrigena, ATCC8461, 33 μg/ml, read-out: Inhib. Zone Diam.
In series [31] the test system is Salmonella schottmuellari MB-2837. Description: In vivo protection of intraperitoneally infected mice. The following applies: ip; at infection and 6 hours later; calculated on the projected purity of 890A1 at 5500 units/mg. Set-up: species or system Female white Swiss mice. How it is done:
(§2) In determining the in vivo activity, antibiotic 890A1 is dissolved in and diluted with 0.15M NaCl, 0.01M sodium phosphate, pH 7.0, to provide five fourfold concentrations of drug for testing. Female white Swiss mice, averaging about 21 g. in weight, were infected intraperitoneally with the test organism suspended in broth. The numbers of organisms injected were determined by standard plate-count techniques. At the time of infection and again 6 hours later, certain of the mice were treated intraperitoneally with the antibiotic. Five mice were used for each concentration of drug tested. An additional two mice, not infected, were treated with the antibiotic to determine whether the amount of agent injected was toxic. Controls of five mice for each of several dilutions of the infecting culture were included in each test in order to calculate the numbers of organisms that were lethal to 50% of the infected, untreated mice (LD50). This calculation was made using survival data of the seventh day after infection, at which time the amount of drug that should protect 50% of the infected mice (ED50) also was calculated.
All animals receiving this challenge and not treated with antibiotic died within 48 hours of the infection.

Series [32] in a line: Electrophoresis. The class given is physicochemical. The following applies: neutral pH.
Series [33] can be described thus: Solubility in water. The class given is physicochemical. The following applies: sodium salt.
The test system of series [34] is gram-negative and gram-positive organisms. In words: In vivo activity. Set-up: species or system Female white Swiss mice. As to conditions: mouse. The method, then: as §2
For series [35], the system named is Vibrio percolans ATCC 8461. In words: Bioassay, agar plate disc-diffusion method. (In general: A growth-free zone around the sample is the usual read-out of agar diffusion tests.)
Where [36] appears, read: 1 unit/ml. = the concentration which produces a 25 mm zone of inhibition.

On to `O=C(Cc1cccs1)N[C@@H]1C(=O)N2C(C(=O)[O-])=C(C[n+]3ccccc3)CS[C@H]12` [cephaloridine], for which the “slope of the line” value in series [1] came out at 4.0. Further, the zone of inhibition at 3.12 µg/mL in [1] (Comamonas terrigena, ATCC8461, 3.12 mcg/ml, 5 ml. plate, read-out: Zone Diameter) came to 16.8 mm. In series [1] (Comamonas terrigena, ATCC8461, 6.25 mcg/ml, 5 ml. plate, read-out: Zone Diameter), the zone of inhibition at 6.25 µg/mL was 22.3 mm. In [1] (Comamonas terrigena, ATCC8461, 12.5 mcg/ml, 5 ml. plate, read-out: Zone Diameter), the zone of inhibition at 12.5 µg/mL amounted to 25 mm. Besides, the zone of inhibition at 25 µg/mL in series [1] (Comamonas terrigena, ATCC8461, 25 mcg/ml, 5 ml. plate, read-out: Zone Diameter) was determined as 29.6 mm.
With `CC(=O)NCCSC1=C(C(=O)O)N2C(=O)C(C(C)O)C2C1` (centres unmarked) [Antibiotic 890A1], the zone of inhibition at 33 µg/mL amounted to 27 mm in [2]; 40 mm in series [3]; 34 mm in series [4]; 34 mm in [5]; 21 mm in series [6]; 0 mm in [7]. Besides, the zone of inhibition at 33 µg/mL was found to be 26 mm in series [8]; 35 mm in [9]; 38 mm in series [10]; 38 mm in [11]; 28 mm in series [12]; 17 mm in series [13]. For the same molecule, the zone of inhibition at 33 µg/mL in series [14] stood at 22 mm; in series [15], 33 mm; in [16], 34 mm; in series [17] it was 26 mm; in [18], 27 mm; in [19], 10 mm. The zone of inhibition at 33 µg/mL turned out to be 27 mm in series [20]; 26 mm in series [21]; 20 mm in series [22]; 0 mm in [23]; 27 mm in series [24]; 18 mm in series [25]. For the same molecule, the zone of inhibition at 33 µg/mL in [26] worked out at 36 mm; in series [27], 15 mm; in series [28], 32 mm; in series [29] it was 23 mm; in series [30], 10 mm. In addition, the “ED50 × 2 doses” value in series [31] is 3 µg. Moreover, in series [32], the movement on electrophoresis result is given as “acidic substance which moves toward the positive pole on electrophoresis at neutral pH”. For the same molecule, in series [33], the solubility in water entry was “very soluble in water”. In addition, the in vivo activity result in [34] was “exhibits in vivo activity against gram-negative and gram-positive organisms”. For the same molecule, in [35] (setting [36]), the “activity of the solution tested in vivo” value worked out at 908 Units/ml. The “potency of 890A1 used in the in vivo test” value in [35] (setting [36]) is 5.5 units per μg. In addition, the antibiotic potency in series [35] (890A1 value defined as standard) stood at 250 units per HAEA300 unit.
